Experimental findings from PubChem BioAssay (NCI) are described below.

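Interpolation was linear, between the two tested concentrations surrounding the appropriate level; five concentrations were tested over 48 hours in 96-well plates. TGI marks complete inhibition of growth.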

In general, TGI refers to the concentration giving total growth inhibition. Read a high TGI as lower sensitivity of the cells.

Test systems include CAKI-1 renal; SN12C renal; SR leukemia; U251 CNS; SK-MEL-28 melanoma; RXF 393 renal; HCT-116 colon; OVCAR-4 ovarian; NCI-H522 lung; NCI-H226 lung; SW-620 colon; M14 melanoma; UACC-257 melanoma; SNB-19 CNS; OVCAR-3 ovarian; OVCAR-5 ovarian; 786-0 renal; HCT-15 colon; PC-3 prostate; NCI/ADR-RES ovarian.
Holding throughout (assay): DTP human tumour cell line panel, 48 h

Take `C=CCCCCCC(O)C(O)C/C=C\C/C=C\CC` (stereo not given): the TGI in the experiment with CAKI-1 renal, in the experiment with SN12C renal, in the experiment with SR leukemia, with U251 CNS, in the experiment with SK-MEL-28 melanoma and in the experiment with RXF 393 renal was above 18.8 µM each time. In addition, the TGI in the experiment on HCT-116 colon, in the experiment with OVCAR-4 ovarian, with NCI-H522 lung, in the experiment with NCI-H226 lung, in the experiment on SW-620 colon and in the experiment with M14 melanoma was above 18.8 µM throughout. Also, the TGI in the experiment with UACC-257 melanoma, in the experiment with SNB-19 CNS, in the experiment with OVCAR-3 ovarian, in the experiment with OVCAR-5 ovarian, in the experiment on 786-0 renal and in the experiment with HCT-15 colon was above 18.8 µM in each case.
Consider `C/C(=N/NC(=S)NCCc1ccccn1)c1cnccn1`, for which the TGI is above 100 µM with CAKI-1 renal; 74.7 µM in the experiment with SN12C renal; 65.9 µM in the experiment on SR leukemia; above 100 µM with U251 CNS; above 100 µM with PC-3 prostate; above 100 µM in the experiment with SK-MEL-28 melanoma. Further, the TGI with HCT-116 colon, in the experiment with OVCAR-4 ovarian, in the experiment with NCI-H522 lung, with SW-620 colon, in the experiment on M14 melanoma and in the experiment on UACC-257 melanoma was above 100 µM throughout. Also, the TGI with SNB-19 CNS is above 100 µM; in the experiment on OVCAR-3 ovarian it was above 100 µM; with OVCAR-5 ovarian, above 100 µM; in the experiment on 786-0 renal, 57.2 µM.
With `N#CN1CCC=C(c2cc3ccccc3[nH]2)C1`, the TGI in the experiment with CAKI-1 renal, in the experiment on SN12C renal, with SR leukemia, with U251 CNS, with SK-MEL-28 melanoma and with RXF 393 renal was above 448 µM throughout. Besides, the TGI in the experiment with HCT-116 colon was above 448 µM; in the experiment with NCI-H522 lung, 298 µM; in the experiment with NCI-H226 lung, above 448 µM; in the experiment with SW-620 colon, above 448 µM; with UACC-257 melanoma, above 448 µM; in the experiment with SNB-19 CNS it was above 448 µM. In addition, the total growth inhibition concentration (TGI) in the experiment on OVCAR-3 ovarian is 339 µM; in the experiment with OVCAR-5 ovarian it was above 448 µM; with 786-0 renal, above 448 µM; in the experiment on HCT-15 colon, above 448 µM.
Regarding `N#CC(NNC(=O)c1ccccc1O)c1ccccc1` (stereo not given), the TGI was above 100 µM with CAKI-1 renal; above 100 µM with SN12C renal; 24.8 µM in the experiment with SR leukemia; above 100 µM in the experiment on U251 CNS; above 100 µM with SK-MEL-28 melanoma; 61.8 µM in the experiment with RXF 393 renal. The TGI was above 100 µM in the experiment on HCT-116 colon; above 100 µM with OVCAR-4 ovarian; 52.2 µM with NCI-H522 lung; 76.6 µM in the experiment with NCI-H226 lung; above 100 µM in the experiment on SW-620 colon; above 100 µM in the experiment on M14 melanoma. For the same compound, the TGI in the experiment on UACC-257 melanoma is above 100 µM; in the experiment on OVCAR-3 ovarian it was 85.9 µM; in the experiment with OVCAR-5 ovarian, above 100 µM; with 786-0 renal, above 100 µM; with HCT-15 colon it was above 100 µM.
Consider `COc1ccccc1/C=N/N=C(\N)NO`, for which the TGI with CAKI-1 renal, in the experiment with SN12C renal, in the experiment on SR leukemia, in the experiment with U251 CNS, in the experiment with SK-MEL-28 melanoma and with RXF 393 renal was above 100 µM each time. The TGI with HCT-116 colon is above 100 µM; in the experiment with OVCAR-4 ovarian, above 100 µM; in the experiment with NCI-H522 lung it was 66.9 µM; in the experiment with NCI-H226 lung, 90.7 µM; in the experiment with SW-620 colon, above 100 µM; in the experiment on UACC-257 melanoma it was above 100 µM. In addition, the TGI with SNB-19 CNS is above 100 µM; in the experiment on OVCAR-3 ovarian, above 100 µM; in the experiment with OVCAR-5 ovarian, 24.3 µM; in the experiment with 786-0 renal it was 90 µM; in the experiment with HCT-15 colon, above 100 µM.
Take `COc1ccc(CCc2ccccc2CC(=O)O)cc1`: the TGI with CAKI-1 renal, with SN12C renal, in the experiment on SR leukemia, in the experiment on U251 CNS, in the experiment on SK-MEL-28 melanoma and with RXF 393 renal was above 100 µM each time. For the same compound, the TGI in the experiment with HCT-116 colon, with OVCAR-4 ovarian, with NCI-H522 lung, with NCI-H226 lung, with SW-620 colon and in the experiment on M14 melanoma was above 100 µM each time. Besides, the TGI in the experiment with UACC-257 melanoma, in the experiment with SNB-19 CNS, with OVCAR-3 ovarian, with OVCAR-5 ovarian, in the experiment with 786-0 renal and with HCT-15 colon was above 100 µM each time.
In the case of `c1ccc2c3c([nH]c2c1)C1(CCCCC1)c1c([nH]c2ccccc12)C31CCCCC1`, the TGI with CAKI-1 renal is above 100 µM; in the experiment on SN12C renal, above 100 µM; in the experiment on SR leukemia, 58.9 µM; in the experiment on U251 CNS, 97.6 µM; with SK-MEL-28 melanoma, above 100 µM; in the experiment with RXF 393 renal, 89.4 µM. The TGI in the experiment on HCT-116 colon is 37.1 µM; with OVCAR-4 ovarian it was 26 µM; in the experiment on NCI-H522 lung, above 100 µM; in the experiment with NCI-H226 lung, 97.1 µM; in the experiment on SW-620 colon it was above 100 µM; in the experiment with M14 melanoma, above 100 µM. Further, the TGI in the experiment with UACC-257 melanoma was above 100 µM; in the experiment with SNB-19 CNS, above 100 µM; with OVCAR-3 ovarian, above 100 µM; with OVCAR-5 ovarian, above 100 µM; with 786-0 renal it was 32.2 µM; with HCT-15 colon, above 100 µM.
For `COc1ccc([C@H](NC(=O)c2ccccc2)[C@@H](O)C(=O)O[C@H]2C[C@@]3(O)C(OC(=O)c4ccccc4)C4[C@](C)(C(=O)[C@H](OC(C)=O)C(=C2C)C3(C)C)[C@@H](O)C[C@H]2OC[C@@]42OC(C)=O)cc1` (stereo not given in full), the TGI in the experiment on CAKI-1 renal was above 10 µM; in the experiment with SN12C renal it was above 10 µM; in the experiment on SR leukemia, 0.694 µM; with SK-MEL-28 melanoma it was above 10 µM; with RXF 393 renal, above 10 µM; in the experiment on OVCAR-4 ovarian, above 10 µM. The TGI with NCI-H226 lung, in the experiment on SW-620 colon, in the experiment on M14 melanoma, in the experiment with UACC-257 melanoma, in the experiment on SNB-19 CNS and in the experiment with OVCAR-5 ovarian was above 10 µM in each case. The TGI in the experiment with 786-0 renal was above 10 µM; in the experiment with HCT-15 colon, above 8.98 µM; in the experiment with NCI/ADR-RES ovarian, above 10 µM.
